Measurements from ChEMBL document CHEMBL1157539, “Thousands of chemical starting points for antimalarial lead identification” (Nature, 2010).

Test system: Plasmodium falciparum
Assay: GSK_TCMDC: Inhibition of Plasmodium falciparum 3D7 in whole erythrocytes, using parasite LDH activity as an index of growth.
Type: functional, organism-based
Details: Plasmodium falciparum, 3D7

Row | Structure (SMILES) | XC50 [µM]
1 | O=C(Cc1ccc([N+](=O)[O-])cc1)N1CCc2cc3nccc(N4CCN5CCC[C@@H]5C4)c3cc21 | 0.843
2 | CCCCOc1ccccc1C(=O)NCc1csc(-c2ccccc2)n1 | 0.556
3 | CCCc1cc(NCC)nc(Nc2ccc(F)cc2)n1 | 1.03
4 | COc1cccc(Nc2nc(NCCO)c3ccccc3n2)c1 | 0.151
5 | C=C(C)C1CC=C(CN2CCCC(n3ccc4cc(NC(=O)c5ccco5)ccc43)CC2)CC1 (stereo unspecified) | 0.753
6 | CCc1cc(-c2onc(C)c2-c2cc3ccccc3o2)c(O)cc1OC | 0.969
7 | CCCCCCNC(=O)C1Cc2c([nH]c3ccccc23)C2(CCN(CCc3ccccc3)CC2)N1 (stereo unspecified) | 1.14
8 | CN(C1CCC(NC(=O)/C=C/c2ccccc2)CC1)C1CC2(CCN(C(=O)OC(C)(C)C)CC2)c2ccccc21 (stereo unspecified) | 0.822
9 | CCCC1N=C(N)N=C(N)N1c1ccc(Cl)cc1 (stereo unspecified) | 0.0467
10 | COc1ccc2nccc([C@@H](O)CN3CCC(NCc4cc5ccc(Cl)cc5[nH]4)CC3)c2c1 | 0.121
11 | CC(=O)c1ccc(NC(=O)NNC(=O)c2ccc(CCN3CCC(c4nc(COCC(F)(F)F)c(-c5ccc(F)cc5)o4)CC3)cc2)cc1 | 0.835
12 | COc1ccccc1C1CCN(C2CCC(NC(=O)/C=C/c3cc(F)cc(C(F)(F)F)c3)CC2)CC1 (stereo unspecified) | 0.901
13 | O=C(N[C@H](Cc1ccc(Cl)cc1)C(=O)N1CCN(c2ccnc3cc(Cl)ccc23)CC1)[C@H]1Cc2ccccc2CN1 | 0.424
14 | Cc1cccc2nc(-c3ccc(-c4cccc(CNCC5CCCO5)c4)cc3)[nH]c12 (stereo unspecified) | 0.7
15 | CC(Cc1ccc(OCCN2CCN(c3ccc(Cl)cc3)CC2)cc1)NCC(O)c1cccc(C(F)(F)F)c1 (stereo unspecified) | 0.807
16 | N#Cc1ccc(-c2ccc(C(=O)NCCCCN3CCC(c4ccc5c(c4OCc4ccccn4)CCCC5)CC3)cc2)cc1 | 0.824
17 | CNc1ccc(CNCc2cccc(-c3ccc(-c4nc5cccc(C)c5[nH]4)cc3)c2)cc1 | 0.66
18 | CCN(CCCN1CCCCC1)c1cc(C)nc(Nc2ccc(Cl)cc2C)n1 | 0.729
19 | CC[C@H]1CN2CC[C@H]1C[C@H]2[C@H](O)c1cc(-c2ccc(SC)cc2)nc2ccc(OC)cc12 | 0.0641
20 | N#Cc1ccc(-c2ccc(OCC(O)CN3CCCN(Cc4cccc(O)c4Cl)CC3)cc2)cc1 (stereo unspecified) | 0.69
21 | O=C1CSc2ccc(CNC3CCN(CCc4c(Cl)cnc5ccc(Cl)cc45)CC3)nc2N1 | 0.229
22 | CCOC(=O)c1nc(-c2cccc(F)c2)[nH]c1N | 0.748
23 | COc1ccccc1CCN(C)CCN1CCC(NC(=O)c2ccc(-c3ccc(C(F)(F)F)cc3)cc2)CC1 | 1.03
24 | O=C(/C=C/c1ccc(-c2ccccc2)cc1)NCCCCCN1CCC(c2c[nH]c3ccccc23)CC1 | 0.854

Row | Structure (SMILES) | XC50 [µM]
25 | Cc1[nH]c(C)c(-c2ccc(-c3cccc(Cl)c3)nc2)c(=O)c1Cl | 0.186
26 | CCNc1cc(C(=O)N[C@@H](Cc2ccccc2)[C@H](O)CNC(C)(C)CSCC(C)C)cc(N2CCCC2=O)c1 | 0.26
27 | N#Cc1ccc(OCCN(Cc2ccccc2C(F)(F)F)c2ccc(C#N)c(C(F)(F)F)c2)cc1 | 0.277
28 | CN1CCN(c2ncnc3ccc(NC(=O)Nc4ccc(Cl)c(Cl)c4)cc23)CC1 | 0.264
29 | O=C(Nc1cccc(F)c1)c1ccc(C(=O)NC2CCN(CC3CCCCC3)C2)cc1 (stereo unspecified) | 0.929
30 | N#Cc1ccc(-c2ccc(C(=O)NCCCCN3CCC(c4ccncc4)CC3)cc2)cc1 | 0.813
31 | C[C@H](NC(=O)C1CCCC1)C(=O)Nc1ccc(-c2ccc(-c3nc4cc(C(F)(F)F)ccc4[nH]3)cc2)cc1 | 0.272
32 | Cc1ccc2[nH]c(C)cc(=NN=Cc3ccccc3F)c2c1 | 0.171
33 | O=C(/C=C/c1ccc(Cl)c(Cl)c1)NCCCCCN1CCCN(C(=O)Nc2ccc(OC(F)F)cc2)CC1 | 0.833
34 | CCOC(=O)NOC(C(=O)O)c1ccccc1 (stereo unspecified) | 0.189
35 | CC1CN(Cc2cccc(-c3ccc(-c4nc5ccccc5[nH]4)cc3)c2)CC(C)O1 (stereo unspecified) | 0.857
36 | Clc1cccc(Nc2ccc3c(N4CCCCC4)ncnc3n2)c1 | 0.577
37 | CN(C)CCCn1cncc1-c1ccc2ncnc(Nc3ccc4c(cnn4Cc4ccccc4)c3)c2c1 | 0.726
38 | CN(C)C(S)=NN=Cc1cccc(O)c1O | 0.872
39 | COc1ccc(C[C@@H](C)NC[C@H](O)c2cccc(Cl)c2)cc1F | 0.867
40 | CN(C)c1ccnc2ccc(NC(=O)Nc3ccnc4ccccc34)cc12 | 0.133
41 | Cc1cc(Cl)c(S(=O)(=O)NC(C)(C)C)cc1OCC(=O)NC1CCCCC1 | 0.548
42 | Cc1cnc(N2CCN(CC3CCN(C)CC3)CC2)nc1Oc1ccc(-n2ccnc2)cc1 | 0.725
43 | CNc1ccc(CNCc2cccc(-c3ccc(-c4nc5cc(C(F)(F)F)ccc5[nH]4)cc3)c2)cc1 | 0.112
44 | CCCCn1c(Sc2ccc(C#N)c([N+](=O)[O-])c2)nnc1-c1cc(OC)cc(OC)c1 | 0.824
45 | Fc1ccc2[nH]c(-c3cccc(-c4cccc(CNCCN5CCNCC5)c4)c3)nc2c1 | 0.842
46 | COc1cc(C=Cc2ccc3ccccc3n2)cc(Br)c1OCC(=O)N(C)C | 1.1
47 | CCN(CC)CCCN(C(=O)c1cc2c(C)nn(-c3ccccc3)c2s1)c1nc(-c2ccc(OC)cc2)cs1 | 1.15
48 | CSC1=NC(C)(C)CC2(CC(c3cccc(C)c3)c3cc(Cl)c(O)cc3O2)N1 (stereo unspecified) | 0.879

Row | Structure (SMILES) | XC50 [µM]
49 | CS(=O)(=O)c1ccc(CNCc2cccc(-c3cccc(-c4nc5ccccc5[nH]4)c3)c2)cc1 | 0.59
50 | CS(=O)(=O)c1ccc(CNCc2ccc(-c3cccc(-c4nc5cc(C(F)(F)F)ccc5[nH]4)c3)cc2)cc1 | 0.138
51 | O=C(NCC1CCN(C/C=C/c2ccccc2)CC1)Nc1ccc(Oc2ccccc2)cc1 | 1.04
52 | COc1cc(OC)cc(C(=O)Nc2ccc(Nc3nc(C)cc(N(C)C)n3)cc2)c1 | 0.646
53 | O=c1n[n+](C2CCCCC2)[n-]o1 | 0.934
54 | Cc1nc(C)c(-c2ccc(Cl)cc2)c(O)c1I | 0.674
55 | COc1ccc2c(=NN=Cc3cccc(F)c3)cc(C)[nH]c2c1 | 0.777
56 | OCC1CCN(Cc2ccc(-c3cccc(-c4nc5ccccc5[nH]4)c3)cc2)CC1 | 0.813
57 | CCCCN(CCCC)CCC(O)C(=Cc1ccc(Cl)cc1Cl)c1ccc(C(F)(F)F)cc1N (stereo unspecified) | 0.193
58 | COc1ccccc1NC(=O)Nc1ccc(-c2ccc(-c3nc4cccc(C)c4[nH]3)s2)cc1 | 0.158
59 | CC(=O)Nc1ccc(CN2CCCN(c3cc(NC(=O)c4cccc(C)c4)ccn3)CC2)cc1 | 0.863
60 | CCc1cn(CCOC)c2ccc(C(=O)N[C@@H](Cc3ccccc3)[C@H](O)CNC(C)(C)CCCC(C)C)cc12 | 0.569
61 | Oc1cc2c(cc1CN1CCN(Cc3ccccc3)CC1)CCC2 | 0.721
62 | O=C(/C=C/c1ccc(Cl)c(Cl)c1)NCCCCCCN1CCN(C(=O)Nc2ccc(Cl)c(C(F)(F)F)c2)CC1 | 0.526
63 | COc1cccc(CN2CCCN(Cc3cccc(NC(=O)c4ccc(Cl)c(Cl)c4)c3)CC2)c1 | 1.46
64 | N#Cc1cccc(NC(=O)Nc2cccc(-c3cccc(-c4nc5cc(C(F)(F)F)ccc5[nH]4)c3)c2)c1 | 0.224
65 | COc1ccc(CNC2CCN(C)CC2)cc1-c1ccc(S(=O)(=O)NCc2ccccc2)s1 | 0.23
66 | Cc1ccc(C2CC(=O)CC(c3ccccn3)C2[N+](=O)[O-])cc1 (stereo unspecified) | 0.859
67 | Cc1c(C)c2c(c(C)c1O)CC[C@](C)(C(=O)N1CCC(CCN3CCC(c4c[nH]c5ccccc45)CC3)CC1)O2 | 0.834
68 | O=C(Nc1ccc2c(c1)OCCO2)c1cc(-c2cccnc2)nc2ccc(Cl)cc12 | 0.714
69 | CCCNCc1ccc(-c2ccc(CN(CCOC)C(=O)Cc3cccnc3)cc2)nc1 | 0.823
70 | N=C(N)NC(=O)Nc1ccc(Cl)c(Cl)c1 | 1.04
71 | Cc1cccc2nc(-c3ccc(-c4cccc(CNCCc5ccncc5)c4)cc3)[nH]c12 | 0.204
72 | Cc1noc(C)c1-c1ccc2c(Nc3cccc4c3-c3ccccc3C4=O)c(C(=O)NCc3ccccc3I)cnc2c1 | 0.627

Row | Structure (SMILES) | XC50 [µM]
73 | Fc1ccc2c(NN=Cc3ccc(Cl)cc3)ccnc2c1 | 0.754
74 | Cc1ccc(CC(C)NCC(O)c2cccc(C(F)(F)F)c2)c(C)c1 (stereo unspecified) | 0.703
75 | CC(=O)Nc1nc(C(=O)Nc2ccc(-c3cccc(-c4nc5ccccc5[nH]4)c3)cc2)cs1 | 0.552
76 | CCn1ccc2c(N3CCCS3(=O)=O)cc(C(=O)N[C@@H](Cc3ccccc3)[C@H](O)CNC(C)(C)CCCC(C)C)cc21 | 0.491
77 | Cc1ccc(NC(=O)c2ccc(CN3CCCN(CC4CCCCC4)CC3)cc2)cc1 | 0.797
78 | CN(C)c1ccc(CN2CCC(CNC(=O)c3cc(-c4cccc(F)c4)cs3)C2)cc1 (stereo unspecified) | 1.02
79 | O=C(CCCCCc1ccccc1)NC1CCC(CN2CCC(c3c[nH]c4ccccc34)CC2)CC1 (stereo unspecified) | 1.14
80 | O=C(CSc1nnc(O)n1Cc1ccccc1)Nc1ccccc1-c1ccccc1 | 0.953
81 | CN(c1ccc2c(c1)nc(Nc1cc(C(C)(C)C)on1)n2C)c1ccnc(Nc2ccc(CS(C)(=O)=O)cc2)n1 | 0.9
82 | CN(C)CCCOC(=O)c1cc2cc(-c3ccccc3)ccc2n1S(=O)(=O)Cc1ccccc1 | 0.361
83 | Cc1cc(N2CCCC2)nc(Nc2ccc(NC(=O)C3CCCC3)cc2)n1 | 1.11
84 | CCS[C@@H]1O[C@H](COC(=O)c2ccccc2)[C@H](OC(=O)c2ccccc2)[C@H](OC(=O)c2ccccc2)[C@H]1OC(=O)c1ccccc1 | 0.808
85 | Cn1cncc1C(=O)Nc1cccc(-c2cccc(-c3nc4cc(C(F)(F)F)ccc4[nH]3)c2)c1 | 0.205
86 | COc1ccc2nccc([C@@H](O)CN3CCC(NC(=O)/C(=C/c4ccccc4)c4ccc(-c5ccccc5)cc4)CC3)c2c1 | 1.05
87 | CN1CCN(c2cccc(-c3nnc(-c4ccc(OCC(=O)NCc5cccc(C(F)(F)F)c5)c([N+](=O)[O-])c4)o3)c2)CC1 | 0.962
88 | Cc1nc(-c2nc(NCCc3ccncc3)ncc2-c2ccsc2)sc1C | 0.298
89 | O=C(Nc1ccc(F)cc1F)NC1CCN(c2ccnc3cc(Cl)ccc23)C1 (stereo unspecified) | 0.245
90 | Cc1noc(C)c1C(=O)N1CCCC(c2[nH]c3c(C)cccc3c2-c2ccncc2)C1 (stereo unspecified) | 0.843
91 | Cc1c(F)cc(C(=O)NC2CC2)cc1-c1ccc2c(cnn2S(=O)(=O)c2ccc(F)c(F)c2)c1 | 0.265
92 | Cc1cccc2nc(-c3ccc(-c4ccc(NC(=O)C5CCN(C)CC5)cc4)cc3)[nH]c12 | 0.748
93 | CC(C)NCc1cccc(-c2ccc(NC(=O)c3cccc(C#N)c3)cc2)c1 | 0.324
94 | O=C(Nc1ccc(-c2ccccc2)cc1)Nc1cccc(Cn2nc(Cl)c(N3CCCNCC3)cc2=O)c1 | 0.676
95 | N#Cc1cccc(CN(Cc2ccc(Cl)c(Cl)c2)S(=O)(=O)c2cccc([N+](=O)[O-])c2)c1 | 0.808
96 | CC(Nc1ccnc2cc(Cl)ccc12)c1ccc(S(N)(=O)=O)cc1 (stereo unspecified) | 0.933
